Test: Human HepG2 cell viability assay in 384 well format
Assay type: toxicity, cell-based
Design: dose 125 nL, time 70.5 hour; concentration not given beside the values
Details: HepG2 cells, read-out: Inhibition

SMILES | cytotoxicity at 70.5 h
C[C@@H]1CN(C(=O)C2CCS(=O)(=O)CC2)C[C@@]1(O)C1CC1 | -19.6%
Cc1ccc2c(c1)cc(CN1CC[C@](C)(O)[C@H](C)C1)n2C | -0.93%
CC(C)c1noc(-c2ccc(NCc3noc(C(C)C)n3)nc2)n1 | -5.44%
Cc1csc(S(=O)(=O)N2CCN(C)C3(CCC(=O)N(C)CC3)C2)c1 (stereo not given) | -11.5%
Cc1cc(C)n(CC(C)NCc2nncn2C2CCCCC2)n1 (stereo not given) | -7.66%
Cc1ncc(CC(=O)N2CCCC(COc3ccccc3F)C2)c(=O)[nH]1 (stereo not given) | -9.07%
CN1CC2(CCN(C(=O)c3ccc4nonc4c3)CC2)CC1=O | -11.3%
Cc1ncsc1CCN(C)C(=O)CN1CCCCCC1=O | -2.38%
O=C1NCC2(CCCN(c3ncnc4c3CCC4)CC2)O1 (stereo not given) | 2.31%
CCc1ccc2nc(C)cc(C(=O)NC3CCC(=O)N(C)C3)c2c1 (stereo not given) | -4.56%
Cc1cc(C(F)(F)F)nc(CCNC(C)Cn2nc(C)cc2C)n1 (stereo not given) | -16.8%
Cc1ccc(S(N)(=O)=O)cc1C(=O)N1CCc2c(ncnc2N(C)C)C1 | 0.0385%
CCOCCC(=O)NCC1CCCO1 (stereo not given) | -6.72%
CCN(CC)CCn1ccnc1-c1cccc(C#N)c1 | -4.77%
CCn1c(CC2CCN(S(=O)(=O)c3cccs3)CC2)nn(C)c1=O | 10.6%
Cc1nnc(SCCNC(=O)Cn2cnc3ccccc3c2=O)s1 | -4.19%
CCC[C@H]1CN(C(=O)c2cc(-c3cccs3)n(C)n2)C[C@@H]1N | -0.00623%
Cc1nsc(NC(=O)N2CCCC2C)n1 (stereo not given) | 2.78%
CCC(=O)N1CCCC(Cn2cc(-c3ccc(F)cc3)nn2)C1 (stereo not given) | -6.83%
COc1ccccc1-c1ccc(NCc2cn3c(n2)SCC3)nn1 | -7.12%
O=C(c1ccc(=O)[nH]c1)N1CCc2c(nc(-c3cccnc3)[nH]c2=O)C1 | -3.02%
O=C1CCc2ccccc2N1CCCn1cnnn1 | -7.93%
COCCCN(Cc1cnc(N2CCCC2)nc1)C1CCN(C)CC1 | -20.3%
Cc1cnc(CNCc2cnc(-c3ccccc3C)s2)cn1 | -1.03%
CCN(Cc1noc(CC(C)C)n1)Cc1cc2ccc(F)cc2[nH]c1=O | 0.157%
COc1cccc(OCC(=O)N2CCC3(CC2)[C@H](O)C[C@@H]3OC)c1 | -5.93%
Cc1ccnn1CCC(=O)N1CCOC(CCc2ccccc2)C1 (stereo not given) | -7.51%

SMILES | cytotoxicity at 70.5 h
COCCCN1CC2(CCN(Cc3cc(C(C)C)no3)CC2)CC1=O | 0.169%
N#Cc1cccc(N2CCCC3(CCC(=O)N(C4CCCC4)C3)C2)n1 (stereo not given) | 4.95%
CN(C)C(=O)c1noc2c1CN(C(=O)CCCN1CCCCC1)CC2 | 10.8%
CCC/C=C/c1ccc(CN2CCN(C)CC2)cn1 | 26%
CN(C)CCN1CC(C(=O)N2CCC(c3cc(=O)[nH]cn3)CC2)CC1=O (stereo not given) | 3.73%
O=C(Nc1ccc(S(=O)(=O)Nc2ccccc2)cc1)N1CCCC1 | -11.6%
CCCN1CCC(CC(=O)N(C)CC(=O)c2ccc(O)cc2)CC1 | -12.2%
CO[C@H]1CN(C(=O)c2ccc(-c3cc[nH]n3)cc2)CC[C@H]1N | -8.35%
CCOc1cc(CNCc2cnc(C)cn2)c(Cl)cc1OC(C)C | 3.1%
Cc1ocnc1C(=O)N[C@H]1CN(CC2CCC2)C[C@@H]1C(C)C | -1.41%
CC1(C)CN(c2cc(C3CC3)ncn2)C[C@]1(C)O | 21.7%
CN(C)C(C(=O)N1CCSCC1)c1ccccc1F (stereo not given) | -5.06%
Cc1cc(C(=O)N2C[C@H](C(C)C)[C@@H](N(C)C)C2)cs1 | -2.9%
COc1ccc(OC2CCN(C(=O)c3cnc(C)s3)CC2)cc1 | -4.93%
COc1ccc(N2CCN(C(=O)CCCc3cn[nH]c3)CC2=O)cc1 | 24.3%
COc1cc(-n2cc(CCO)cn2)ccc1NC(C)=O | -9.17%
COC(=O)c1cc(C)nc(N2CCN(Cc3cc(C(C)C)no3)CC2)n1 | -12.8%
Cc1nc(NCCc2noc(C3CCCO3)n2)c2sccc2n1 (stereo not given) | 49.7%
Cc1nc(C)c(C(=O)N2C[C@@H](C(=O)O)[C@H](C3CC3)C2)s1 | -1.71%
CCC(=O)N1CCN(C(=O)Nc2cccc(C#N)c2)[C@H]2CS(=O)(=O)C[C@H]21 | -15.6%
CCCc1cc(C(=O)N2CCC3(CCCN(CCO)C3=O)C2)cs1 (stereo not given) | -0.486%
CCNC(=O)[C@@H]1C[C@@H](N)CN1Cc1ccc(Sc2ccc(C)cc2)o1 | -4.77%
Cc1nc(CNC(=O)c2cc(COc3ccccc3F)[nH]n2)n[nH]1 | 17.2%
CN(CCc1ccccc1)Cc1cc(C(=O)N2CCN(C)C(=O)C2)no1 | -14.7%
O=C(Cc1ccc(O)c(Cl)c1)N1CCCCC1CCn1cccn1 (stereo not given) | -4.41%
CCc1nc(C)c([C@H]2CN(C)C[C@@H]2C(=O)Nc2ccc(OC)cc2)[nH]1 | -7.07%
CN(CCCc1cnn(C)c1)C(=O)C1CCOC1 (stereo not given) | 12.6%

SMILES | cytotoxicity at 70.5 h
CCC(OC)C(=O)N1CCc2nc(NC)nc(C(=O)N3CCCC3)c2C1 (stereo not given) | -5.78%
CN(C)c1nc2c(c(N3CCC(O)CC3)n1)CN(CC1CCNC1)CC2 (stereo not given) | -11.3%
CNC(=O)CN(C)c1nc(-c2ccncc2)nc2c1CCN(C(C)=O)C2 | -6.78%
COc1cc(C)sc1C(=O)N1CC(c2cccnc2)C1 | -3.92%
Cc1[nH]c(=O)[nH]c(=O)c1CN1CCCC(CCc2c(F)cccc2F)C1 (stereo not given) | -12.5%
COCCC(=O)N1CCC2(CC1)CC(c1ccccc1)CN(C)C2 (stereo not given) | -5.14%
CC(C)N1CCC(NCc2cccnc2N(C)C)CC1 | 2.11%
Cc1nc(N2CCN(C)CC2)ncc1C(=O)N1CCC(O)(CO)CC1 | -6.38%
CN(CCCc1cnn(C)c1)C(=O)C1COc2ccccc2C1 (stereo not given) | -5.74%
CCCc1noc(CN(C)C(=O)C2COc3ccccc3C2)n1 (stereo not given) | -16.1%
O=S1(=O)COCCN1Cc1cccc(Cl)c1 | -8.17%
CCn1cc(CN2CCCC(CO)(CCc3ccccc3)C2)c(C)n1 (stereo not given) | -7.26%
CCc1cc(NCCc2ccc(O)cc2)n2nccc2n1 | 2.9%
COc1ccccc1[C@@H]1CN(Cc2cc(C(C)(C)C)[nH]n2)C[C@H]1C(=O)O | -7.86%
O=C(CCCc1cn[nH]c1)N1C[C@@H](CN2CCOCC2)[C@@H](CO)C1 | 17.7%
CN(CCc1ccccc1)Cc1cc(C(=O)N2CCCC2(C)C)no1 | 8.4%
O=C(c1cnccn1)N1C[C@@H]2CC[C@H](C1)N(C(=O)Cc1ccsc1)C2 | -1.28%
COc1ccc(C(=O)C2CCCN(Cc3ccncc3)C2)c(OC)c1 (stereo not given) | -9.3%
CCN(CC)c1ccc(-c2nc(-c3cccc(OC)c3OC)no2)cn1 | -7.4%
COC(=O)c1ccc2ccn(CC3CCNC3)c(=O)c2c1 (stereo not given) | -1.63%
Cc1ccsc1CN(CCN(C)C)Cc1ccccn1 | -4.97%
Cc1ccccc1CSc1nc(N)cc(N2C[C@H](O)[C@@H](N(C)C)C2)n1 | -2.01%
COC(=O)N1C[C@H]2CC[C@@H]1CN(Cc1cscn1)C2 | 1.18%
CC(C)Oc1cccc(C(=O)C2CCCN(C(=O)c3ncn[nH]3)C2)c1 (stereo not given) | -9.49%
O=C(CN1CCCC(c2ccc(C(=O)O)cc2)C1)NC1CC1 (stereo not given) | -5.55%
COc1ccccc1CN(C)C(=O)c1cc(CN2CCC(O)CC2)on1 | -0.685%

Source: ChEMBL document CHEMBL3507680, “University of Dundee, Gates Library screen for HepG2 cell viability”
